These results are taken from PubChem BioAssay AID1996.

In brackets after ≈: the same amount, converted by molar mass.

The conditions of the series: buffer; pH 7.4; 200.0 µM.
The term solubility (kinetic) denotes the concentration staying in solution when a stock, usually in DMSO, is diluted into the medium. In the case of `COc1ccc(S(=O)(=O)n2cnc3ccccc32)c(C)c1`, the kinetic solubility came out at 17 µg/mL (≈ 56.2 µM). Compound `O=[N+]([O-])c1ccc(CNc2cccc(F)c2)s1` registered a kinetic solubility of 17.6 µg/mL (≈ 69.8 µM). On to `O=[N+]([O-])c1ccc(N2CCN(Cc3ccncc3)CC2)cc1`, for which the kinetic solubility was 35.3 µg/mL (≈ 118 µM). Then `COc1ccc(Cl)cc1N(CC(=O)N1CCCC1)S(C)(=O)=O`, with 51.5 µg/mL (≈ 148 µM); and `Nc1cc(N)nc(SCC(=O)NCC(=O)Nc2ccc(F)c(F)c2F)n1`, with 51.3 µg/mL (≈ 133 µM).

For `CC(C)(C)c1cc(NC(=O)Nc2ccccc2)no1`, the kinetic solubility was found to be 4.1 µg/mL (≈ 15.8 µM). As for `CCC(=O)NCCc1nc2cc(NC(=O)c3ccco3)ccc2n1C`, the figure is 48 µg/mL (≈ 141 µM); as for `COc1cc(-c2noc(CCC(=O)NC3CCCCC3)n2)cc(OC)c1OC`, 10 µg/mL (≈ 25.7 µM). Then `CCCCNC(=S)N1CCN(c2ccccc2Cl)CC1`, with 13.1 µg/mL (≈ 42 µM).

Regarding `COc1ccc(C)cc1S(=O)(=O)NCCN1CCOCC1`, the kinetic solubility was above 47.2 µg/mL. Then `Cc1cc(C)nc(N2C(=O)CC(Cc3ccc(Cl)cc3)C2=O)n1` (stereo unspecified), with above 49.5 µg/mL. Then `Cc1ccc(-n2c(O)c(C=NCCCn3ccnc3)c(=O)[nH]c2=O)cc1`, with above 53 µg/mL; and `COc1ccccc1N(C)S(=O)(=O)c1ccc(C(=O)O)cc1`, with above 48.2 µg/mL.

`NC(=O)c1ccc(NC(=O)c2cccc3c2OCCCO3)cc1` displayed a solubility (kinetic) of 14.5 µg/mL (≈ 46.4 µM).

`O=C(Nc1nccs1)C1=COCCO1` came in with a solubility (kinetic) above 31.8 µg/mL. The compound `CCc1ccc2[nH]c(C)c(CN3CCCCCC3)c(=O)c2c1` displayed a solubility (kinetic) above 44.8 µg/mL. Compound `COc1ccc(Oc2ccc(C(F)(F)F)cc2NC(=O)c2ccc(F)cc2)cc1` yielded a kinetic solubility below 0.9 µg/mL.

`CC(NC(=O)CCC(=O)c1ccccc1)c1ccc(F)cc1` (stereo unspecified): the solubility (kinetic) was above 44.9 µg/mL.

`O=C1CCC([N+](=O)[O-])C(C2CC=CCC2)N1` (stereo unspecified) displayed a kinetic solubility above 33.6 µg/mL.

`CC(=O)N1c2ccccc2CCc2ccc(N)cc21.Cl` displayed a kinetic solubility above 43.3 µg/mL.

`CC1CCC(NC(=O)CNC(=O)c2cccs2)CC1` (stereo unspecified) had a solubility (kinetic) above 42.1 µg/mL. Then `CCn1c(SCC(=O)O)nnc1-c1ccccc1OC`, with above 44 µg/mL. In turn, `Nc1ccc(C(=O)OCC(=O)Nc2cccc(S(=O)(=O)NC3=NCCCCC3)c2)cc1[N+](=O)[O-]` yielded a solubility (kinetic) of 4.7 µg/mL (≈ 9.6 µM). Then `O=C(O)c1ccc(CNC(=O)c2ccc3c(c2)C(=O)N(Cc2cccnc2)C3=O)cc1`, with above 62.3 µg/mL; and `O=C(O)/C=C\C(=O)O.c1ccc(Sc2ccccc2CN2CCCC2)cc1`, with above 57.8 µg/mL. The compound `CC1CCN(C(C(=O)O)c2ccccc2)CC1.Cl` (stereo unspecified) returned a solubility (kinetic) above 40.5 µg/mL. The compound `Cc1ccc(C(=O)OCC(=O)NCCN2C(=O)CSC2=O)cc1[N+](=O)[O-]` displayed a kinetic solubility above 57.2 µg/mL. As for `Cc1cc(Cl)c(S(=O)(=O)N2CCCC2)cc1OCC(N)=O`, the figure is above 49.9 µg/mL; as for `O=C(Nc1ccc(Cl)cc1)Nc1ccccn1`, 0.6 µg/mL (≈ 2.42 µM); as for `Cc1nc(Nc2ccc(O)cc2)c2c3c(sc2n1)CCCC3`, 12.9 µg/mL (≈ 41.4 µM). Then `O=C(Nc1ccc(F)cc1)Nc1cccnc1Cl`, with 13.8 µg/mL (≈ 51.9 µM); and `CCc1c(C)c(C#N)c2nc3ccccc3n2c1NC`, with 1.3 µg/mL (≈ 4.92 µM); and `OCCN=C1CCCc2c1[nH]c1ccc(Cl)cc21`, with 12.3 µg/mL (≈ 46.8 µM). As for `COC(=O)c1ccc(CNC(=O)CCC(=O)N2CCOCC2)cc1`, the figure is above 50.2 µg/mL; as for `CC1CCCN(c2nc(N(C)c3ccccc3)nc(N)c2[N+](=O)[O-])C1` (stereo unspecified), 4.5 µg/mL (≈ 13.1 µM).

`CN1CCN(c2nc3ccccn3c(=O)c2C=O)CC1.Cl` gave a solubility (kinetic) of 45 µg/mL. This solubility kinetic is about 10-fold higher than that of the compound before.

`CCOC(=O)c1ccc(S(=O)(=O)NCCNCc2ccccc2)cc1.Cl` yielded a solubility (kinetic) above 59.8 µg/mL.

For `Cc1cccc(NC(=O)Cc2ccc(-c3ccccc3)cc2)n1`, the solubility (kinetic) amounted to 3.6 µg/mL (≈ 11.9 µM). As for `O=C1N(c2ccccc2)C(c2cccnc2)N2CCCN12` (stereo unspecified), the figure is above 42 µg/mL. As for `O=C1NC(=O)N(Cc2ccccc2)C(=O)/C1=C/C=C/c1ccco1`, the figure is 8.8 µg/mL (≈ 27.3 µM); as for `NC(=O)CN(Cc1ccccc1)S(=O)(=O)c1ccc2c(c1)OCCO2`, above 54.4 µg/mL; as for `O=C(/C=C/c1cc(Br)ccc1F)Nc1cccnc1`, 2 µg/mL (≈ 6.23 µM). As for `COc1ccc(-c2cc(C(=O)N3CCCCC3)c3ccccc3n2)cc1OC`, the figure is 51.6 µg/mL (≈ 137 µM); as for `CC(=O)C1=C(O)C(=O)N(c2ccc(O)cc2)C1c1cccc([N+](=O)[O-])c1` (stereo unspecified), above 53.1 µg/mL. Take `COc1ccc(S(=O)(=O)n2cccc2)cc1`: the solubility (kinetic) amounted to 4.2 µg/mL (≈ 17.7 µM).

`CC1(C)CC(=O)C=C(NCCc2ccccc2)C1` displayed a solubility (kinetic) of 35.1 µg/mL (≈ 144 µM). Compared with the last compound, the solubility kinetic is about 8.4-fold higher. Then `CC(CCN1CCN(c2ccccn2)CC1)c1ccccc1` (stereo unspecified), with 31 µg/mL (≈ 105 µM); and `O=C1CSC(c2ccc([N+](=O)[O-])cc2)N1Cc1ccccc1` (stereo unspecified), with 32.5 µg/mL (≈ 103 µM); and `Cc1cccc(C2=N/C(=C\c3cccs3)C(=O)O2)c1`, with 4 µg/mL (≈ 14.9 µM).

Regarding `CCN1CCN(c2oc(/C=C/c3ccccc3)nc2C#N)CC1`, the solubility (kinetic) is 42.4 µg/mL (≈ 137 µM). Then `CC(=O)Nc1ccc(N2C(=O)C3C4C=CC(CC4)C3C2=O)cc1` (stereo unspecified), with above 46.6 µg/mL.
